Laboratory results: US10300067B2, “Tetrahydropyridopyrimidine compound or salt thereof” (TAIHO PHARMACEUTICAL CO., LTD., priority 2014, dated 2019)

Legend:
[1] = molecular target: human androgen receptor (Homo sapiens (Human), UniProt P10275); test: Antagonist activity for AR (pMMTV-luc reporter transcription activity in transfected COS-7 cells, DHT 1 nmol/L); type: cell-based; settings: 50% transcription activity inhibition concentration; COS-7 cells with pMMTV-luc and pEX-hAR, DHT 1 nmol/L, 24 hours
Chain of human androgen receptor (P10275 whole entry): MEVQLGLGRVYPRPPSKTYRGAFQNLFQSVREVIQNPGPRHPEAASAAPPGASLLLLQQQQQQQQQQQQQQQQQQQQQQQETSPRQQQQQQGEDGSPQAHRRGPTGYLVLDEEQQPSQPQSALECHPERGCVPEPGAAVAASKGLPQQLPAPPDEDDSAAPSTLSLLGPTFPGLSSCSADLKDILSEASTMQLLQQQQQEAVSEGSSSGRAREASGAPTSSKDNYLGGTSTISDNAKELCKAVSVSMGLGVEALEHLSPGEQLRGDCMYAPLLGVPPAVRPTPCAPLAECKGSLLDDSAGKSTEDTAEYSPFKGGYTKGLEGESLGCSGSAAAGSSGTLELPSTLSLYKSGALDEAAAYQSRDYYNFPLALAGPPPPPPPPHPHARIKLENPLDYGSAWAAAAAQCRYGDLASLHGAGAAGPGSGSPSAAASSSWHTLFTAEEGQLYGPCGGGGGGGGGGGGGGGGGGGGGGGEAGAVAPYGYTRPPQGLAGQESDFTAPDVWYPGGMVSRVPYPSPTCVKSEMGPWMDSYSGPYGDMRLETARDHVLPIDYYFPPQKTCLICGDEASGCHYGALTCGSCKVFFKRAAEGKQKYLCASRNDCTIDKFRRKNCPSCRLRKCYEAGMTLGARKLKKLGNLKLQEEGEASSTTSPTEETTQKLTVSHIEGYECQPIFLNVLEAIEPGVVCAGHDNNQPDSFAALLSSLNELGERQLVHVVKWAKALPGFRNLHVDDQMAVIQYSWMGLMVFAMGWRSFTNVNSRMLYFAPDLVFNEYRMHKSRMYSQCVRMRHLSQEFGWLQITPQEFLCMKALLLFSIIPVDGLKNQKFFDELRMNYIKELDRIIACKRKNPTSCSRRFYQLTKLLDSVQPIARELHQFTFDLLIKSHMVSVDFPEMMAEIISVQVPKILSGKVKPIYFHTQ
Method in brief: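 COS-7 cells co-transfected with pMMTV-luc reporter and CMV-driven human AR expression vector, cultured overnight in phenol red-free RPMI1640 with 10% charcoal-treated FBS. Antagonism measured against 1 nmol/L DHT by luciferase transcription activity.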

[2] = test system: Human prostate cancer cells LNCaP; test: Androgen-dependent inhibitory activity on proliferation of prostate cancer cells; type: cell-based; settings: 50% proliferation inhibition concentration, DHT 10 nmol/L, 72 hours, read-out: GI50 value
Procedure: Human prostate cancer cells LNCaP (Non-Patent Literature 5) having […] androgen receptor gene were seeded in a clear bottom 96 well microplate (BD) at 4.0×10^3/well with phenol red free RPMI1640 containing 5% DCC-FBS (hereinbelow, the medium is referred to as an evaluation medium), and then cultured overnight. The culture was added with the evaluation medium containing DHT (final concentration of DHT: 10 nmol/L) or the evaluation medium containing the compound of Examples or the compound of Comparative Examples (final concentration of the compound of Examples or the compound of Comparative Examples: 10, 30, 100, 300, 1000, 3000, 10000, or 30000 nmol/L), followed by culture for 72 hours. Then, the number of viable cells was counted. The number of viable cells was measured by using Cell Counting Kit-8 (DOJINDO LABORATORIES).

[3] = test system: AR positive human prostate cancer cells VCaP; test: Agonist activity for AR (cell proliferation rate of VCaP cells); type: cell-based; settings: 72 hours, 2 to 10000 nmol/L, more than 10% at any concentration = agonist activity for AR
Method in brief: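 VCaP cells seeded at 1.5×10^4/well in phenol-red-free RPMI1640 with 5% DCC-FBS, then exposed 72 h to compound at 2–10000 nmol/L (9 concentrations). Viable cells counted by CellTiter-Glo; proliferation rate (%) relative to medium-only control, agonist activity called when >10% at any concentration.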

[4] = molecular target: androgen receptor (Homo sapiens (Human), UniProt P10275, T878A); test: Activity of reducing expression level of androgen receptor (Western blotting of LNCaP cell lysate); type: cell-based; settings: 48 hours
Chain of androgen receptor (P10275 whole entry T878A): as the sequence (P10275 whole entry) above, with T878A counted along it
Method in brief: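 LNCaP prostate cancer cells (AR T878A) in phenol red-free RPMI1640 with 5% FBS treated with compound at final 10000 nmol/L for 48 h. Cell lysates analysed by Western blot with anti-AR antibody; band quantified by chemiluminescence.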

[5] = test system: LNCaP-Xeno-IL-6 cells; test: Anti-tumor activity in in vivo model of castration resistant prostate cancer; settings: castrated male nude mice, oral, every day for 2 weeks
Procedure: From the AR positive human prostate cancer cells LNCaP, castration resistant prostate cancer cells, LNCaP-Xeno-IL-6 cells, were established based on the scientific paper (Clin Cancer Res, 2001 7:2941-8) (in the paper, the cells have been reported as LNCaP-IL-6+ cells) and used for the in vivo test. The LNCaP-Xeno-IL-6 cells were implanted subcutaneously in male nude mice, and the castration treatment was performed when the tumor volume reached about 200 mm^3. After the castration, the vehicle only (0.5% HPMC) or the compound of Examples suspended in the vehicle was orally administered to the mice every day for 2 weeks. The compound of Examples was administered such that there was no difference in an exposure amount between the compounds. After the administration for 2 weeks, the tumor volume of each mouse was recorded and the average tumor volume of the group administered with the evaluation compound relative to the average tumor volume of the group administered only with the vehicle, that is, T/C (%), was calculated based on the following formula. T/C (%)=(Average tumor volume of evaluation compound group)/(Average tumor volume of vehicle administration group)

| SMILES | IC50 [1] [nM] | GI50 [2] [nM] | Cell proliferation rate (%) [3] [%] | 10 μM AR expression reducing activity [4] | T/C (%) ([5]; daily dose 100 mg/kg/day) | T/C (%) ([5]; daily dose 30 mg/kg/day) | T/C (%) ([5]; daily dose 15 mg/kg/day) | T/C (%) ([5]; daily dose 200 mg/kg/day) |
| --- | --- | --- | --- | --- | --- | --- | --- | --- |
| CC(C)(O)c1ccc(Nc2ncnc3c2CCN(c2ccc(C#N)c(Cl)c2)C3)nn1 [Example 6, 2-chloro-4-(4-((6-(2-hydroxypropan-2-yl)pyridazin-3-yl)amino)-5,6-dihydropyrido[3,4-d]pyrimidin-7 (8H)-yl)benzonitrile] | 70 | 400 | −0.7 | reduced (When the AR expression reducing activity is 50% or more, it is described as “reduced”) | 29 |  |  |  |
| CC(C)(O)c1ccc(Nc2ncnc3c2CCN(c2ccc(C#N)c(C(F)(F)F)c2)C3)nc1 [Example 7, 4-(4-((5-(2-hydroxypropan-2-yl)pyridin-2-yl)amino)-5,6-dihydropyrido[3,4-d]pyrimidin-7(8H)-yl)-2-(trifluoromethyl)benzonitrile] | 160 | 500 | 4.9 | reduced (When the AR expression reducing activity is 50% or more, it is described as “reduced”) |  | 49 |  |  |
| CC(C)(O)c1ccc(Nc2ncnc3c2CCN(c2ccc(C#N)c(Cl)c2)C3)nc1 [Example 9, 2-chloro-4-(4-((5-(2-hydroxypropan-2-yl)pyridin-2-yl)amino)-5,6-dihydropyrido[3,4-d]pyrimidin-7 (8H)-yl)benzonitrile] | 250 | 500 | −0.7 | reduced (When the AR expression reducing activity is 50% or more, it is described as “reduced”) |  |  | 40 |  |
| N#Cc1ccc(N2CCc3c(ncnc3Nc3ccc(C(=O)NCC(F)(F)F)cn3)C2)cc1C(F)(F)F [Example 11, 6-((7-(4-cyano-3-(trifluoromethyl)phenyl)-5,6,7,8,-tetrahydropyrido[3,4-d]pyrimidin-4-yl)amino)-N-(2,2,2-trifluoroethyl)nicotinamide] | 30 | 380 | 2.9 | reduced (When the AR expression reducing activity is 50% or more, it is described as “reduced”) |  |  |  | 47 |
